System: HCV genotype-1a variant with glutamine 30 changed to glutamate in the NS5A protein
Format: cell-based
Conditions: test compound titrated with BMS-790052 fixed at 200 nM; genotype 1a Q30E replicon
In short: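 Synergy was assessed by combining several fixed amounts of an NS5A-targeting compound with a titration of the second compound of interest.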

Row | SMILES | Fold-Synergistic 1a (Q30E)
1 | CC(C)(C)[C@H](NC(=O)C1(N2CCC(F)(F)CC2)COC1)c1nc(-c2ccc(-c3ccc(-c4c[nH]c([C@@H](NC(=O)C5(N6CCC(F)(F)CC6)COC5)C(C)(C)C)n4)cc3)cc2)c[nH]1 [Compound W-63] | >100 fold
2 | Cc1ccc(S(=O)(=O)NC(c2ncc(-c3ccc(-c4ccc(-c5cnc([C@@H](NS(=O)(=O)c6ccc(C)cc6)C(C)C)[nH]5)cc4)cc3)[nH]2)C(C)C)cc1 (stereo partly shown) [Compound Y-58] | >100 fold
3 | CC(C)[C@H](NC(=O)C1CCC(F)(F)CC1)c1nc2ccc(C#Cc3ccc4nc([C@@H](NC(=O)C5CCC(F)(F)CC5)C(C)C)[nH]c4c3)cc2[nH]1.O=C(O)C(F)(F)F [Compound B42] | >100 fold
4 | CCOC(=O)N1CCC[C@H]1c1ncc(-c2ccc(-c3ccc(-c4cnc([C@@H]5CCCN5C(=O)OCC)[nH]4)cc3)cc2)[nH]1 [Compound S-217] | >10 fold
5 | CC(C)CC(=O)N1CCC[C@H]1c1ncc(-c2ccc(-c3ccc(C4=CNC([C@@H]5CCCN5C(=O)CC(C)C)N4)cc3)cc2)[nH]1 (stereo partly shown) [Compound S-112] | <10 fold
6 | CC(C)(C)[C@H](NC(=O)Cc1ccc(F)cc1)c1nc(-c2ccc(-c3ccc(-c4c[nH]c([C@@H](NC(=O)Cc5ccc(F)cc5)C(C)(C)C)n4)cc3)cc2)c[nH]1 [Compound N-49] | >100 fold
7 | CC1([C@H](NC(=O)N2CCC(F)(F)CC2)c2nc(-c3ccc(-c4ccc(-c5c[nH]c([C@@H](NC(=O)N6CCC(F)(F)CC6)C6(C)CC6)n5)cc4)cc3)c[nH]2)CC1 [Compound P-135] | >100 fold
8 | CC1([C@H](NC(=O)C2(C(C)(C)O)CC2)c2ncc(-c3ccc(-c4ccc(-c5cnc([C@@H](NC(=O)C6(C(C)(C)O)CC6)C6(C)CC6)[nH]5)cc4)cc3)[nH]2)CC1 [Compound B149] | >100 fold
9 | CC(C)[C@H](NC(=O)Cc1noc2ccccc12)c1ncc(-c2ccc(-c3ccc(-c4cnc([C@@H](NC(=O)Cc5noc6ccccc56)C(C)C)[nH]4)cc3)cc2)[nH]1 [Compound P-77] | >100 fold
10 | CC(C)(Br)C(=O)N[C@H](c1nc(-c2ccc(-c3ccc(-c4c[nH]c([C@@H](NC(=O)C(C)(C)Br)C(C)(C)C)n4)cc3)cc2)c[nH]1)C(C)(C)C [Compound W-149] | >100 fold
11 | CC(C)[C@H](N[S@@+]([O-])C(C)(C)C)c1ncc(-c2ccc(-c3ccc(-c4cnc([C@@H](N[S@+]([O-])C(C)(C)C)C(C)C)[nH]4)cc3)cc2)[nH]1 [Compound Y-60] | >100 fold
12 | CC(C)(C)C(NC(=O)C1C2COCC21)c1nc(-c2ccc(-c3ccc(-c4c[nH]c(C(NC(=O)C5C6COCC65)C(C)(C)C)n4)cc3)cc2)c[nH]1 [Compound L-67] | >100 fold
13 | CC(C)[C@H](NC(=O)C(C)(C)C)c1nc(-c2ccc(-c3ccc(-c4c[nH]c([C@@H](NC(=O)C(C)(C)C)C(C)C)n4)nc3)cc2)c[nH]1 [Compound N-101, N—((S)-2-methyl-1-(4-(4-(6-(2-((S)-2-methyl-1-pivalamidopropyl)-1H-imidazol-4-yl)pyridin-3-yl)phenyl)-1H-imidazol-2-yl)propyl)pivalamide] | >100 fold
14 | CC(O)(CF)C(=O)N[C@H](c1nc(-c2ccc(-c3ccc(-c4c[nH]c([C@@H](NC(=O)C(C)(O)CF)C(C)(C)C)n4)cc3)cc2)c[nH]1)C(C)(C)C (single isomer, unassigned) [Compound N-139B] | >100 fold
15 | CC(C)[C@H](NC(=O)C1CCC(F)(F)CC1)c1ncc(-c2ccc3cc(-c4ccc5nc([C@@H](NC(=O)C6CCC(F)(F)CC6)C(C)C)[nH]c5c4)ccc3c2)[nH]1 [Compound B55] | >100 fold
16 | CC1([C@H](NC(=O)C2(C)CCCC[C@@H]2O)c2ncc(-c3ccc(-c4ccc(-c5cnc([C@@H](NC(=O)C6(C)CCCC[C@@H]6O)C6(C)CC6)[nH]5)cc4)cc3)[nH]2)CC1 (stereo partly shown) [Compound Y-116] | >100 fold

Reference: US20160158200A1, “Combinations of Hepatitis C Virus Inhibitors” (priority 2013, published 2016)
